≈ marks a conversion by molar mass, not a printed value. Read-outs that look alike come from different tables or passages of the source.

The source of these data is patent publication US9359298B2, “Cajanine structure analogous compound, preparation method and use” (INSTITUTE OF MEDICINAL BIOTECHNOLOGY, CHINESE ACADEMY OF …, priority 2011, dated 2016).

Common to all, as to format: cell-based
Experiment [1] concerns Influenza A virus (hanfang359/95). Put plainly: Determination of anti-influenza virus activity (CPE in MDCK cells). The note with it: for IC50: Influenza A virus, MDCK, 36 h; for anti-influenza virus activities compared with the lead compound cajanine: statement in words.
For experiment [2], the system named is PC12 cells. Put plainly: Neuroprotective activity assay, serum-deprived injury to PC12 cells (MTT). The note with it: for viability at 10 µM: Rattus norvegicus, PC-12, 48 h, 10 μM test compound, 48 h, Control 100.0 ± 9.2, Model 69.3 ± 4.1, read-out: serum-deprived (surviving PC12 cells, MTT 570 nm); for protective effect on serum-deprived injury to PC12 cells: statement in words. The method, then: (§1) Discard the original culture media from confluent monolayers of PC12 cells (simulated neuronal cells), add DMEM complete medium with 5% FBS, 5% horse serum gently beat upon the cells with a pipette to completely disperse them, inoculate 100 μl cell suspension at a density of […] per well to 96 hole plates treated with poly-lysine (0.1 mg/ml) in advance, culture for 24h. Divide the experimenting cells into control group, model group and dosing groups. Add complete medium to the control group. Model groups includes rotenone group and serum-deprived group, add rotenone to the corresponding modules with a final concentration of 4 μM rotenone to take effect on the cells for 48 h, add serum-deprived groups with serum-free DMEM medium to take effect on the cells for 48 h. Dosing groups also includes two groups, one using rotenone module as model, another using serum-deprived module as model, and both add in 10 μM test compounds during modeling. 48h later, add 10 μl 5 mg/ml MTT, subsequently discard the supernatant 4h later and add in 150 μl DMSO, measure 570 nm absorbance to represent the numbers of surviving cells.

For another experiment, the system named is Coxsackie virus B6. Put plainly: Coxsackie virus activity assay (CPE in Vero cells). The note with it: Vero, read-out: COX-B6 IC50, Vero cells, about 100TCID50, CPE, Reed-Muench.
Experiment [3] concerns PC12 cells. Put plainly: Neuroprotective activity assay, rotenone injury to PC12 cells (MTT). The note with it: for viability at 10 µM: Rattus norvegicus, PC-12, 48 h, 10 μM test compound, 4 μM rotenone, 48 h, Control 100.0 ± 8.9, Model 73.2 ± 7.8, read-out: rotenone (surviving PC12 cells, MTT 570 nm); for protective effect on rotenone injury to PC12 cells: statement in words. How it is done: as §1

Another experiment relates to HCV. Put plainly: Anti-hepatitis C virus (HCV) activity assay (HCV RNA in Huh7.5 cells). The note with it: for EC50: Hepatitis C virus, Huh7.5, 72 h, read-out: HCV EC50; for anti-HCV viral activity: statement in words. How it is done: Inoculate Huh7.5 cells into 96-well plates to a density of 3×10^4 cells/cm^2, culture for 24h, infect the cells with 45 IU/cell HCV supernatant, meanwhile, add drug solutions or solvent control for treatment.

In another experiment the test system is HIV-1 III B virus. Briefly: Anti-HIV activity assay (P24 antigen in MT-4 cells). The note with it: for IC50: Human immunodeficiency virus 1, MT4, 96 h, read-out: HIV IC50; for anti-HIV viral activity: statement in words.
Setting [4] is: Huh7.5 cells, 72 h, HCV RNA by RT-PCR, Reed-Muench.
[5] abbreviates: MT-4 cells, HIV-1 III B 100TCID50, 96 h, P24 antigen.

For `COc1cc(/C=C/c2cc(OC)c(OC)c(OC)c2)c(C(=O)O)c(O)c1CC=C(C)C` [Compound 1u, 2-hydroxy-3-isopentenyl-4-methoxy-6-[(E)-(3,4,5-trimethoxystyryl)]benzoic acid], the IC50 in experiment [1] turned out to be 0.21 µg/mL (≈ 0.49 µM); in the experiment with Coxsackie virus B6, 0.14 µg/mL (≈ 0.327 µM); in the experiment with HIV-1 III B virus (setting [5]), 0.16 µg/mL (≈ 0.373 µM). Moreover, the “anti-influenza virus activities compared with the lead compound cajanine” value in experiment [1] is on record as “significantly stronger than the lead compound cajanine”. In addition, the viability at 10 µM worked out at 89.3 ± 2.3% with PC12 cells [2] and 90 ± 3.2% in the experiment with PC12 cells [3]. Besides, the “protective effect on serum-deprived injury to PC12 cells” value in the experiment with PC12 cells [2] was “the strongest activities”. The “protective effect on rotenone injury to PC12 cells” value with PC12 cells [3] was “the strongest activities”. For the same compound, in the experiment on HCV (setting [4]), the EC50 amounted to 0.84 µg/mL (≈ 1.96 µM). Besides, in the experiment with HCV, the “anti-HCV viral activity” value is “stronger anti-HIV, HCV viral activities”. Also, the “anti-HIV viral activity” value in the experiment on HIV-1 III B virus is given as “stronger anti-HIV, HCV viral activities”.

As for `COc1ccnc(/C=C/c2cc(OC)c(CC=C(C)C)c(O)c2C(=O)O)c1` [Compound 1v, 2-hydroxy-3-isopentenyl-4-methoxy-6-[(E)-2-(4-methoxypyrid-2-yl)ethenyl]benzoic acid], the IC50 was 2.31 µg/mL (≈ 6.25 µM) in experiment [1], 1.25 µg/mL (≈ 3.38 µM) with Coxsackie virus B6 and 1.48 µg/mL (≈ 4.01 µM) with HIV-1 III B virus (setting [5]). For the same compound, the viability at 10 µM with PC12 cells [2] amounted to 79.9 ± 1.6%; in the experiment with PC12 cells [3] it was 87.2 ± 2.6%. The EC50 in the experiment on HCV was determined as 1.25 µg/mL (≈ 3.38 µM).

As to `COc1cc(/C=C/c2cc(O)ccn2)c(C(=O)O)c(O)c1CC=C(C)C` [Compound 1w, 2-hydroxy-3-isopentenyl-4-methoxy-6-[(E)-2-(4-hydroxypyrid-2-yl)ethenyl]benzoic acid], in experiment [1], the midpoint of inhibition, the IC50, lay at 0.19 µg/mL (≈ 0.535 µM) and the “anti-influenza virus activities compared with the lead compound cajanine” value is on record as “significantly stronger than the lead compound cajanine”. Besides, in the experiment with PC12 cells [2], the viability at 10 µM amounted to 89.3 ± 5.4% and the “protective effect on serum-deprived injury to PC12 cells” value is given as “the strongest activities”. Also, the IC50 with Coxsackie virus B6 is 0.54 µg/mL (≈ 1.52 µM). In addition, in the experiment with PC12 cells [3], the viability at 10 µM stood at 88.9 ± 2.5% and the “protective effect on rotenone injury to PC12 cells” value is “the strongest activities”. For the same compound, the EC50 with HCV (setting [4]) stood at 2.06 µg/mL (≈ 5.8 µM). Also, in the experiment on HIV-1 III B virus (setting [5]), the IC50 was found to be 2.87 µg/mL (≈ 8.08 µM).

Turning to `COc1cc(/C=C/c2ccc(O)cn2)c(C(=O)O)c(O)c1CC=C(C)C` [Compound 1y], the IC50 stood at 4.25 µg/mL (≈ 12 µM) in experiment [1], 5.84 µg/mL (≈ 16.4 µM) with Coxsackie virus B6 and 0.63 µg/mL (≈ 1.77 µM) in the experiment with HIV-1 III B virus (setting [5]). Moreover, the viability at 10 µM in the experiment with PC12 cells [2] stood at 87.6 ± 1.6%; in the experiment with PC12 cells [3], 89.7 ± 1.9%. Moreover, the EC50 with HCV (setting [4]) was 0.86 µg/mL (≈ 2.42 µM). Besides, in the experiment on HCV, the “anti-HCV viral activity” value was “stronger anti-HIV, HCV viral activities”. In addition, in the experiment on HIV-1 III B virus, the “anti-HIV viral activity” value is given as “stronger anti-HIV, HCV viral activities”.

As for `COC(=O)c1c(/C=C/c2ccccc2)cc(OC)cc1OC` [Compound 6, methyl 2,4-dimethoxy-6-[(E)-styryl]benzoate], the IC50 in experiment [1] was greater than 2.05 µg/mL; in the experiment with Coxsackie virus B6, greater than 2.06 µg/mL; in the experiment on HIV-1 III B virus, greater than 2.06 µg/mL. For the same compound, the viability at 10 µM with PC12 cells [2] was 62.4 ± 7%; in the experiment on PC12 cells [3] it was 74.4 ± 5.2%. Also, in the experiment on HCV (setting [4]), the EC50 is greater than 12.2 µg/mL.

As to `COC(=O)c1c(/C=C/c2ccccc2)cc(OC)c(CC=C(C)C)c1O` [Compound 8, methyl 2-hydroxy-3-isopentenyl-4-methoxy-6-[(E)-styryl]-benzoate], the IC50 in experiment [1] amounted to 0.69 µg/mL (≈ 1.96 µM); in the experiment on Coxsackie virus B6, 3.56 µg/mL (≈ 10.1 µM); in the experiment with HIV-1 III B virus (setting [5]) it was 1.06 µg/mL (≈ 3.01 µM). Further, the values for the viability at 10 µM with PC12 cells [2] and with PC12 cells [3] were 76.6 ± 5.8% and 78.9 ± 5.7%, respectively. For the same compound, the EC50 in the experiment on HCV (setting [4]) came out at 0.79 µg/mL (≈ 2.24 µM). For the same compound, the “anti-HCV viral activity” value with HCV is listed as “stronger anti-HIV, HCV viral activities”. Further, in the experiment on HIV-1 III B virus, the “anti-HIV viral activity” value is listed as “stronger anti-HIV, HCV viral activities”.

With `COC(=O)c1c(/C=C/c2ccc(OC)cc2)cc(OC)c(CC=C(C)C)c1O` [Compound 8c, methyl 2-hydroxy-3-isopentenyl-4-methoxy-6-[(E)-4-methoxystyryl]-benzoate], the IC50 was greater than 2.06 µg/mL in experiment [1], 4.79 µg/mL (≈ 12.5 µM) in the experiment on Coxsackie virus B6 and 1.99 µg/mL (≈ 5.2 µM) in the experiment with HIV-1 III B virus (setting [5]). Moreover, the viability at 10 µM in the experiment on PC12 cells [2] was 67.3 ± 10%; in the experiment with PC12 cells [3], 71.9 ± 6.1%. Further, the EC50 in the experiment with HCV (setting [4]) worked out at 3.06 µg/mL (≈ 8 µM).
